Results published in paper PMC6934184, “Selective DNA-PKcs inhibition extends the therapeutic index of localized radiotherapy and chemotherapy” (The Journal of Clinical Investigation, 2019).

Biological target: T1, CSNK1G1 (CK1 gamma 1) (Homo sapiens, UniProt Q9HCP0)
T1 construct: purchased Thermo Fisher Scientific (Life Technologies) SelectScreen
Assay: SelectScreen Z'LYTE
Assay type: biochemical
In short: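 Percent values come from Thermo SelectScreen profiling of NU5455, combining activity and binding assays. CSF1R was run in Z'LYTE format at Km app ATP, and CAMK1 in Adapta format with ATP listed at 10.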

T1 sequence (Q9HCP0 whole entry): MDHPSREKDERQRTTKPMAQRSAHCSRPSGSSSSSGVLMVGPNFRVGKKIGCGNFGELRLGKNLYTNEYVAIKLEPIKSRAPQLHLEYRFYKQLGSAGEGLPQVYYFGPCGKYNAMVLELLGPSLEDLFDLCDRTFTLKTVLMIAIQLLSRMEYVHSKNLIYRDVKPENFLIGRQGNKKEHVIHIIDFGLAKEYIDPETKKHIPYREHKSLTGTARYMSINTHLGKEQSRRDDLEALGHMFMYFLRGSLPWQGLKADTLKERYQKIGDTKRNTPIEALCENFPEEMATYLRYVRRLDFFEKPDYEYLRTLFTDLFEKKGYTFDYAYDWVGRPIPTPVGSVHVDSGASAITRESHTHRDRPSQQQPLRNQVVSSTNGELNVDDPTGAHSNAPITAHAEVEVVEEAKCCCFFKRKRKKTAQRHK

## CN(C(=O)CN1CCOCC1)c1ccc2sc3c(-c4cccc5c(=O)cc(N6CC7CCC(C6)O7)oc45)cccc3c2c1 [NU5455]
  inhibition at 1 µM: -9.9%
